Experimental findings from publication PMC10388362, “Fluorescent Ligands Enable Target Engagement Studies for the Intracellular Allosteric Binding Site of the Chemokine Receptor CXCR2” (Journal of Medicinal Chemistry, 2023) are described below.

One data set has as its target T1, CXCR2 (Homo sapiens, UniProt P25025).
T1 construct: Promega pNLF1-C (Nluc) #CXCR20TN00; host or cells: HEK293T, transient transfection (PEI)
T1 sequence (P25025 1-360): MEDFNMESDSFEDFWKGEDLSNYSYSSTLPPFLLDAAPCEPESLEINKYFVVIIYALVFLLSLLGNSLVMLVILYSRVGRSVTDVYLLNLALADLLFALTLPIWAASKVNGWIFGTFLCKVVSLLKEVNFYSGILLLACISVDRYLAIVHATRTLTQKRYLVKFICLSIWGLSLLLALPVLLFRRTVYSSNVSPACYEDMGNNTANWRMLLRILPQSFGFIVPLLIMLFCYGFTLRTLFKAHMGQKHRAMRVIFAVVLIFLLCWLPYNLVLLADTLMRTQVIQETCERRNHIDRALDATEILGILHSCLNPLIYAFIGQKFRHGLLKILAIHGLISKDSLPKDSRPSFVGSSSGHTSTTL
As to the kind of experiment: Live cell NanoBRET saturation binding (HEK293T cells expressing CXCR2_Nluc). The procedure: HEK293T cells were transfected with the plasmid (5.5 μg) for CXCR2_Nluc using polyethylenimine (PEI) as transfection reagent (PEI/DNA ratio 3:1). After 24 h at 37 °C and 5% CO2, the cells were detached with DMEM and transferred to a white F-bottom 384-well plate (10,000 cells/well), which was coated with 5 μL/well poly-D-lysine (0.1 mg/mL, dissolved in water), and incubated for further 24 h at 37 °C and 5% CO2. Subsequently, the cells were washed with phosphate-buffered saline (Gibco DPBS, with CaCl2 and MgCl2). The assay medium (Gibco DMEM/F12, 15 mM HEPES, no phenol red supplemented with 5% FBS) was added and the cells were incubated at 37 °C for 30 min. […]
After 120 min of incubation at 37 °C, 5 μL of a furimazine solution (final assay dilution: 1:2500, diluted with assay medium) was added. Subsequent to a further incubation of 5 min in the dark at 37 °C, BRET ratios were measured with a CLARIOstar microplate reader using 620/10 and 475/30 nm emission filters. Total, nonspecific and specific binding, which was calculated as a difference of total and nonspecific binding, were analyzed using the algorithms for one-site saturation binding in PRISM9.5 (GraphPad). To determine the inhibition constants (Ki) of the potential competitors, data were normalized to total and nonspecific binding and analyzed using the one-site-fit Ki equation in PRISM9.5 (GraphPad).
(In BRET a luciferase serves as donor, and the signal depends on an acceptor being close.)

A further data set has as its target T2, CCR7 (Homo sapiens, UniProt P32248).
T2 construct: host or cells: HEK293T; membrane preparation
T2 sequence (P32248 25-378): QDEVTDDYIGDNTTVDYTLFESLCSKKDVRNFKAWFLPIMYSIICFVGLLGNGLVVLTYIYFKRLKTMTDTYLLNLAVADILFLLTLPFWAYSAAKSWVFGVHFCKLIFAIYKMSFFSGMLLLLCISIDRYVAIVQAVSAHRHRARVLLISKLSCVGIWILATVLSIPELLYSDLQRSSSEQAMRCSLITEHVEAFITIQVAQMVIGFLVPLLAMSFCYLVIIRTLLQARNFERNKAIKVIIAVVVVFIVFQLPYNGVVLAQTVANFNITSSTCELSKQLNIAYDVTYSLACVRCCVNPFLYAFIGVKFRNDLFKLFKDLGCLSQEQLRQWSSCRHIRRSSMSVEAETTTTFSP
Kind of data set: Membrane-based NanoBRET saturation assay, selectivity (CCR7_GSSG_Nluc membranes). The procedure: For the establishment of our NanoBRET binding assay, we referred to a recently published protocol.[45] The fluorescent ligands (9a–c) were dissolved in DMSO (1 mM) and further diluted to varying concentrations in an assay buffer (50 mM Na2HPO4, 50 mM KH2PO4, pH 7.4, 1 mg/mL saponin, 5% FBS) and 5 μL of these dilutions were pipetted to a 384-well plate. To determine the total binding, 5 μL of the assay buffer was added to the corresponding wells, while 5 μL of a solution of 3 in the assay buffer (final assay concentration: 1 μM) was used to determine nonspecific binding. Then, 20 μL of the membrane preparations diluted in the assay buffer (2 μg total protein/well) were added and the plates were incubated for 90 min at 37 °C. Subsequently, 5 μL of a furimazine solution (Promega, Mannheim, Germany, final assay dilution: 1:5000) was added to each well (final assay volume: 35 μL) before measuring luminescence with a CLARIOstar microplate reader using 620/10 and 475/30 nm emission filters after 5 min of incubation in the dark. Bioluminescence resonance energy transfer (BRET) was determined as the ratio of acceptor fluorescence and donor luminescence. […] Specific binding signals were calculated as a difference of total and nonspecific binding. If required, netBRET values were calculated as the difference between total BRET values and the values obtained in the absence of a fluorescent ligand. […]

Structures are written as SMILES.

As for `Cc1ccc([C@H](Nc2c(Nc3cccc(C(=O)NCc4cn(CCOCCOCCOCCNC(=O)c5ccc(C(=O)[O-])c(-c6c7ccc(=[N+](C)C)cc-7oc7cc(N(C)C)ccc67)c5)nn4)c3O)c(=O)c2=O)C(C)(C)C)o1` [9a, (R)-4-((2-(2-(2-(2-(4-((3-((2-((2,2-Dimethyl-1-(5-methylfuran-2-yl)propyl)amino)-3,4-dioxocyclobut-1-en-1-yl)amino)-2-hydroxybenzamido)methyl)-1H-1,2,3-triazol-1-yl)ethoxy)ethoxy)ethoxy)ethyl)carbamoyl)-2-(6-(dimethylamino)-3-(dimethyliminio)-3H-xanthen-9-yl)benzoate], at CXCR2 (live HEK293T cells transiently expressing CXCR2_Nluc, 37 °C, read-out: Kd (equilibrium saturation binding)), the Kd came out at 0.25 ± 0.01 nM. In addition, the “passage of the cell membrane” value at CXCR2 (live HEK293T cells, inferred from cellular binding) is listed as “able to pass the cell membrane”. In addition, the “binding to CCR7” value at CCR7 was “no significant binding”.
